Four molecules from ChEMBL document CHEMBL4476876, “Compounds for the modulation of myc activity” (2018) can be followed below.

The term IC50 denotes the concentration that inhibits the measured activity by half.

Some results are limits rather than exact numbers.

Test [1] has as its system NCI-H2171. Briefly: Antiproliferative activity against human NCI-H2171 cells after 72 hrs by ATPlite assay. The following applies: NCI-H2171, 72 h. The format is functional, cell-based. On the technique in general: ATP-based viability assays read luminescence as a measure of living cells.
Test [2] concerns the target Myc proto-oncogene protein (Homo sapiens, UniProt P01106). Briefly: Inhibition of human c-Myc assessed as reduction in c-Myc/Max/Ebox DNA complex formation using pre-formed complex of c-Myc and biotinylated DNA containing single Ebox-sequence followed by compound addition and further addition of his6-tagged c-Max and incubated for 2 hrs by AlphaScreen assay.

Myc proto-oncogene protein, sequence (P01106 whole entry): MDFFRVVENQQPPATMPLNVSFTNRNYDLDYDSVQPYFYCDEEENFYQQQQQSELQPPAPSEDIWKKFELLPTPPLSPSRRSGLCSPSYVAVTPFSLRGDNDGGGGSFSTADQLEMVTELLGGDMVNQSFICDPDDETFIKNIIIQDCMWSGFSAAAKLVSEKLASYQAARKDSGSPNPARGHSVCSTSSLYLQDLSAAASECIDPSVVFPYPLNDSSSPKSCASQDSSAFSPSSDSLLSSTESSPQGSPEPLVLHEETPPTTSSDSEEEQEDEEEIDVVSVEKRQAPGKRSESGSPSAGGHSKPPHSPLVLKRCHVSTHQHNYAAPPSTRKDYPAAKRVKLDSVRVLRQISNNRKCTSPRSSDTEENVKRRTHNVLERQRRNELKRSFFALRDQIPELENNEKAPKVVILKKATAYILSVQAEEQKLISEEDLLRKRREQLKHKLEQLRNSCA

With `CCN1[C@H](C)Cc2c(sc(NC(C)=O)c2-c2nc3c(C(F)F)nccc3s2)[C@H]1C`, the IC50 in test [1] was below 0.5 µM.

For the molecule `O=C(CC[N+]12CCN(CC1)CC2)Nc1sc2c(c1-c1nc3cnccc3s1)CCNC2`, the IC50 in test [2] is below 0.5 µM.

Consider `CC[C@H](C)NCCC(=O)Nc1sc2c(c1-c1nc3cnccc3s1)C[C@H](C)NC2`, for which the IC50 in test [1] was below 0.5 µM.

`CC[C@H](C)NCCC(=O)Nc1sc2c(c1-c1nc3cnccc3s1)CN[C@H](C)C2` gave an IC50 in test [1] below 0.5 µM.
